Assay results: PubChem BioAssay (NCI)
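Step 1: Grow cells in 96-well plates. Step 2: Expose to compound for 48 hours at 5 concentrations. Step 3: Interpolate endpoints linearly; if unreached, use highest concentration. The concentration for full growth arrest is given as TGI.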

Legend:
Test in all cases: NCI tumour cell line growth inhibition, 48 h
NCI-H460 lung = test system: NCI-H460 lung
A549 NSCLC = test system: A549 NSCLC
OVCAR-4 ovarian = test system: OVCAR-4 ovarian
UACC-257 melanoma = test system: UACC-257 melanoma
MCF7 breast = test system: MCF7 breast
RPMI-8226 leukemia = test system: RPMI-8226 leukemia
SF-539 CNS = test system: SF-539 CNS
HOP-92 NSCLC = test system: HOP-92 NSCLC
DU-145 prostate = test system: DU-145 prostate
T-47D breast = test system: T-47D breast
MOLT-4 leukemia = test system: MOLT-4 leukemia
OVCAR-3 ovarian = test system: OVCAR-3 ovarian
A498 renal = test system: A498 renal
U251 CNS = test system: U251 CNS
SN12C renal = test system: SN12C renal
SK-MEL-2 melanoma = test system: SK-MEL-2 melanoma
ACHN renal = test system: ACHN renal
OVCAR-5 ovarian = test system: OVCAR-5 ovarian
NCI-H23 lung = test system: NCI-H23 lung
MDA-N = test system: MDA-N
HOP-62 NSCLC = test system: HOP-62 NSCLC
LOX IMVI melanoma = test system: LOX IMVI melanoma
HCT-15 colon = test system: HCT-15 colon
KM12 colon = test system: KM12 colon
MDA-MB-435 = test system: MDA-MB-435
HT29 colon = test system: HT29 colon
EKVX NSCLC = test system: EKVX NSCLC
786-0 renal = test system: 786-0 renal
CCRF-CEM leukemia = test system: CCRF-CEM leukemia
NCI/ADR-RES ovarian = test system: NCI/ADR-RES ovarian
HCT-116 colon = test system: HCT-116 colon
OVCAR-8 ovarian = test system: OVCAR-8 ovarian
SK-MEL-5 melanoma = test system: SK-MEL-5 melanoma
SK-OV-3 ovarian = test system: SK-OV-3 ovarian
M14 melanoma = test system: M14 melanoma
TK-10 renal = test system: TK-10 renal
UO-31 renal = test system: UO-31 renal
UACC-62 melanoma = test system: UACC-62 melanoma
IGROV1 ovarian = test system: IGROV1 ovarian
RXF 393 renal = test system: RXF 393 renal
CAKI-1 renal = test system: CAKI-1 renal
COLO 205 colon = test system: COLO 205 colon
SR leukemia = test system: SR leukemia
SNB-19 CNS = test system: SNB-19 CNS
BT-549 breast = test system: BT-549 breast
SK-MEL-28 melanoma = test system: SK-MEL-28 melanoma
HS 578T breast = test system: HS 578T breast
MDA-MB-231 breast = test system: MDA-MB-231 breast
SNB-75 CNS = test system: SNB-75 CNS
SF-268 CNS = test system: SF-268 CNS
NCI-H522 lung = test system: NCI-H522 lung
SF-295 CNS = test system: SF-295 CNS
HL-60(TB) leukemia = test system: HL-60(TB) leukemia
SW-620 colon = test system: SW-620 colon
K-562 leukemia = test system: K-562 leukemia
NCI-H226 lung = test system: NCI-H226 lung
HCC-2998 colon = test system: HCC-2998 colon
PC-3 prostate = test system: PC-3 prostate

**Q.** For `COC(=O)C(CCC1C=CN(S(=O)(=O)c2ccc(C)cc2)C1)N=Cc1ccccc1` (stereo not drawn), which TGI (NCI-H460 lung) is on record?
**A.** Its TGI is > 100 µM.

**Q.** What about the TGI (A549 NSCLC) of the same compound?
**A.** Its TGI is > 100 µM.

**Q.** And the TGI (OVCAR-4 ovarian)?
**A.** The TGI was > 100 µM.

**Q.** And the TGI (UACC-257 melanoma)?
**A.** The TGI was > 100 µM.

**Q.** What about the TGI (MCF7 breast) of the same compound?
**A.** The TGI was > 100 µM.

**Q.** And the TGI (RPMI-8226 leukemia)?
**A.** Its TGI is 82 µM.

**Q.** What about the TGI (SF-539 CNS) of the same compound?
**A.** The TGI was > 100 µM.

**Q.** What about the TGI (HOP-92 NSCLC) of the same compound?
**A.** Its TGI is > 100 µM.

**Q.** What about the TGI (DU-145 prostate) of the same compound?
**A.** The TGI was > 100 µM.

**Q.** What about the TGI (T-47D breast) of the same compound?
**A.** Its TGI is > 100 µM.

**Q.** What about the TGI (MOLT-4 leukemia) of the same compound?
**A.** Its TGI is > 100 µM.

**Q.** What about the TGI (OVCAR-3 ovarian) of the same compound?
**A.** Its TGI is > 100 µM.

**Q.** And the TGI (A498 renal)?
**A.** Its TGI is > 100 µM.

**Q.** And the TGI (U251 CNS)?
**A.** The TGI was > 100 µM.

**Q.** And the TGI (SN12C renal)?
**A.** Its TGI is > 100 µM.

**Q.** What about the TGI (SK-MEL-2 melanoma) of the same compound?
**A.** Its TGI is 49.6 µM.

**Q.** What about the TGI (ACHN renal) of the same compound?
**A.** The TGI was > 100 µM.

**Q.** What about the TGI (OVCAR-5 ovarian) of the same compound?
**A.** Its TGI is > 100 µM.

**Q.** What about the TGI (NCI-H23 lung) of the same compound?
**A.** The TGI was 63 µM.

**Q.** And the TGI (MDA-N)?
**A.** Its TGI is > 100 µM.

**Q.** And the TGI (HOP-62 NSCLC)?
**A.** Its TGI is > 100 µM.

**Q.** And the TGI (LOX IMVI melanoma)?
**A.** The TGI was > 100 µM.

**Q.** And the TGI (HCT-15 colon)?
**A.** The TGI was > 100 µM.

**Q.** And the TGI (KM12 colon)?
**A.** The TGI was > 100 µM.

**Q.** What about the TGI (MDA-MB-435) of the same compound?
**A.** The TGI was > 100 µM.

**Q.** What about the TGI (HT29 colon) of the same compound?
**A.** The TGI was > 100 µM.

**Q.** And the TGI (EKVX NSCLC)?
**A.** Its TGI is > 100 µM.

**Q.** And the TGI (786-0 renal)?
**A.** Its TGI is > 100 µM.

**Q.** And the TGI (CCRF-CEM leukemia)?
**A.** The TGI was > 100 µM.

**Q.** What about the TGI (NCI/ADR-RES ovarian) of the same compound?
**A.** The TGI was > 100 µM.

**Q.** And the TGI (HCT-116 colon)?
**A.** Its TGI is > 100 µM.

**Q.** And the TGI (OVCAR-8 ovarian)?
**A.** Its TGI is > 100 µM.

**Q.** What about the TGI (SK-MEL-5 melanoma) of the same compound?
**A.** Its TGI is 53.9 µM.

**Q.** What about the TGI (SK-OV-3 ovarian) of the same compound?
**A.** Its TGI is > 100 µM.

**Q.** What about the TGI (M14 melanoma) of the same compound?
**A.** Its TGI is > 100 µM.

**Q.** And the TGI (TK-10 renal)?
**A.** Its TGI is > 100 µM.

**Q.** And the TGI (UO-31 renal)?
**A.** The TGI was > 100 µM.

**Q.** What about the TGI (UACC-62 melanoma) of the same compound?
**A.** The TGI was > 100 µM.

**Q.** What about the TGI (IGROV1 ovarian) of the same compound?
**A.** The TGI was > 100 µM.

**Q.** What about the TGI (RXF 393 renal) of the same compound?
**A.** The TGI was > 100 µM.

**Q.** And the TGI (CAKI-1 renal)?
**A.** Its TGI is > 100 µM.

**Q.** And the TGI (COLO 205 colon)?
**A.** Its TGI is 41.1 µM.

**Q.** And the TGI (SR leukemia)?
**A.** The TGI was 61.1 µM.

**Q.** And the TGI (SNB-19 CNS)?
**A.** Its TGI is > 100 µM.

**Q.** And the TGI (BT-549 breast)?
**A.** Its TGI is > 100 µM.

**Q.** What about the TGI (SK-MEL-28 melanoma) of the same compound?
**A.** Its TGI is > 100 µM.

**Q.** What about the TGI (HS 578T breast) of the same compound?
**A.** The TGI was > 100 µM.

**Q.** And the TGI (MDA-MB-231 breast)?
**A.** Its TGI is > 100 µM.

**Q.** What about the TGI (SNB-75 CNS) of the same compound?
**A.** The TGI was > 100 µM.

**Q.** What about the TGI (SF-268 CNS) of the same compound?
**A.** Its TGI is > 100 µM.

**Q.** And the TGI (NCI-H522 lung)?
**A.** The TGI was > 100 µM.

**Q.** What about the TGI (SF-295 CNS) of the same compound?
**A.** Its TGI is > 100 µM.

**Q.** And the TGI (HL-60(TB) leukemia)?
**A.** The TGI was 22.1 µM.

**Q.** And the TGI (SW-620 colon)?
**A.** Its TGI is > 100 µM.

**Q.** What about the TGI (K-562 leukemia) of the same compound?
**A.** The TGI was > 100 µM.

**Q.** And the TGI (NCI-H226 lung)?
**A.** Its TGI is > 100 µM.

**Q.** What about the TGI (HCC-2998 colon) of the same compound?
**A.** The TGI was > 100 µM.

**Q.** And the TGI (PC-3 prostate)?
**A.** The TGI was > 100 µM.
